According to patent publication US20200171022A1, “FLT3 INHIBITORS FOR IMPROVING PAIN TREATMENTS BY OPIOIDS” (INSERM (Institut National de la Santé et da la Recherche …, priority 2017, published 2020):

Experiments:
wild-type (Flt3+/+) mice = assay: Mechanical pain hypersensitivity after repeated morphine, von Frey test (Example 3); settings: morphine 10 mg/kg twice a day for 4 days, compared to saline
Experimental: Experiments were performed in male mice carrying a homozygous deletion of Flt3 (F1t3KO mice)^24 and their littermates (WT) weighing 25-30 g. […] Animals were maintained in a climate-controlled room on a 12 h light/dark cycle and allowed access to food and water ad libitum. To limit the stress induced by the experimental procedure, the general plan for an experimental phase was as follows: • arrival and housing of the animals: 4 days; • evaluation of nociceptive threshold baseline; • repeated opioid administration and evaluation of treatment effects
Filaments were applied perpendicularly to the plantar surface of the paw. The 50% paw withdrawal threshold was determined in grams by the Dixon nonparametric test. The protocol was repeated until three changes in behavior occurred.
(§1) Data are presented as mean±S.E.M. To evaluate the time-course effects of treatments and individual group comparisons, one-way and two-way ANOVA with repeated measurements were performed followed by Dunnett's post hoc test. Bonferroni's test was used for multiple comparisons between groups. A difference was accepted as significant if the probability that it occurred by chance alone was less than 5% (P<0.05).

Male Sprague-Dawley rats [1] = assay: Tolerance to morphine analgesia after chronic morphine treatment, paw pressure test (Example 5); format: in vivo, rat; settings: morphine 2 mg/kg s.c. twice daily for 4 days, D0 to D4, control animals
Experimental: Rats were kept under controlled environmental conditions (22° C., 60% relative humidity, 12 h light/dark cycle with lights on at 7:00 A.M., food and water ad libitum). To limit the stress induced by the experimental procedure, the general plan for an experimental phase was as follows: • arrival and housing of the animals: 4 days; • acclimatization of the animals for 10 days to the experimental conditions in order to avoid any possibility of measurement bias being induced by stress; • evaluation of nociceptive threshold baseline • repeated opioid administration and evaluation of treatment effects
(§2) Paw pressure test: Mechanical hyperalgesia was measured as the threshold to a noxious mechanical stimulus. […] Briefly, a constantly increasing pressure is applied to the rat hind paw until vocalization occurs. A Basile analgesimeter (Bioseb, France; stylus tip diameter, 1 mm) was used. A 600-g cut-off value was determined to prevent tissue damage.
Intrathecal injection was performed via manual lumbar puncture over one minute under anesthesia (isoflurane).
Data are presented as mean±S.E.M. To evaluate the time-course effects of treatments and individual group comparisons, one-way and two-way ANOVA with repeated measurements were performed followed by Dunnett's post hoc test. Bonferroni's test was used for multiple comparisons between groups. […]

Male Sprague-Dawley rats [2] = assay: Potentiation of morphine-induced analgesia and morphine-dose sparing, paw pressure test (Example 4); settings: for pressure exerted on the hindpaw to obtain withdrawal: BDT001 1 mg/kg, morphine 1.5 mg/kg, mean±S.E.M., 6 animals, saline 250±7.4 g
Experimental: as §2
To evaluate the group effects of treatments, two-way ANOVA with repeated measurements were performed followed by Dunnett's post-hoc test. Newman-Keul's test was used for multiple comparisons between groups. A difference was accepted as significant if the probability that it occurred by chance alone was less than 5% (P<0.05).

Male Sprague-Dawley rats [3] = assay: Morphine-induced mechanical pain hypersensitivity and latent pain sensitization, paw pressure test (Example 6); settings: morphine 2 mg/kg twice daily for 4 days; observed on D2, back to baseline on D9
Experimental: Rats were kept under controlled environmental conditions (22° C., 60% relative humidity, 12 h light/dark cycle with lights on at 7:00 A.M., food and water ad libitum). To limit the stress induced by the experimental procedure, the general plan for an experimental phase was as follows: • arrival and housing of the animals: 4 days; • acclimation of the animals for 10 days to the experimental conditions in order to avoid any possibility of measurement bias being induced by stress; • evaluation of nociceptive threshold baseline • repeated opioid administration and evaluation of treatment effects
Mechanical hyperalgesia was measured as the threshold to a noxious mechanical stimulus. […] Briefly, a constantly increasing pressure is applied to the rat hind paw until vocalization occurs. A Basile analgesimeter (Bioseb, France; stylus tip diameter, 1 mm) was used. A 600-g cut-off value was determined to prevent tissue damage.
as §1

Row | SMILES | nociceptive threshold (mechanical pain hypersensitivity) after repeated morphine (wild-type (Flt3+/+) mice) | morphine-induced analgesia (percentage of MPE) on repeated morphine administration (Male Sprague-Dawley rats [1]) | pressure exerted on the hindpaw to obtain withdrawal (Male Sprague-Dawley rats [2]; 30 min after administration) | morphine-induced analgesia (area under the curve) (Male Sprague-Dawley rats [2]; morphine 0.5, 1, 1.5 or 2 mg/kg s.c. alone) | nociceptive threshold (pain hypersensitivity) in morphine-treated animals (Male Sprague-Dawley rats [3]) | morphine-dose sparing effect (Male Sprague-Dawley rats [2]; BDT001 1 mg/kg i.p.) | analgesia by itself (Male Sprague-Dawley rats [2]; BDT001 1 mg/kg i.p. alone, 30 min after administration)
1 | CN1CC[C@]23c4c5ccc(O)c4O[C@H]2[C@@H](O)C=C[C@H]3[C@H]1C5 [morphine] | induced a decrease in the nociceptive threshold | induced a progressive decrease in morphine-induced analgesia | 502.5 ± 20.0 g | induced analgesia in a dose-dependent manner | significant decrease in the nociceptive threshold |  | 
2 | O=C(Nc1cc(Cl)ccc1O)c1cccc(S(=O)(=O)N2CCCCC2)c1 [BDT001, N-(5-chloro-2-hydroxyphenyl)-3-(piperidin-1-ylsulfonyl)benzamide] |  |  | 252.5 ± 9.0 g |  |  | 30% | did not produced analgesia by itself
